Like-named read-outs stand apart in the source and are kept apart here.

A short description of series [1]: In vitro phase I metabolism with mouse hepatic microsomes and NADPH. It counts as in vitro ADME. The following applies: liver microsomal enzymes of C57BL/6 male mice. As to the method: Figure 2 PZ-DHA undergoes phase I metabolism in the presence of freshly prepared mouse liver microsomes. PZ-DHA (1.1 µM) was incubated with 100 mM NADPH in the presence of mouse liver microsome for 1 h at 37 °C. Metabolites from PZ-DHA (A) hydrolysis, (B) and (C) hydroxylation, and (D) epoxidation were identified.
Mouse hepatic microsomes were freshly isolated from the livers of male C57BL/6 mice, and the entire extraction procedure was carried out at 4 °C. Mouse livers were minced and homogenized in KCl/sucrose phosphate buffer (0.154 M KCl, 0.25 M sucrose in 50 mM potassium phosphate buffer (K2HPO4/KH2PO4) (PPB), pH 7.5). Cell/tissue debris was separated out by centrifuging homogenized livers at 12,000×g for 22 min at 4 °C. The supernatant was collected and centrifuged at 100,000×g for 70 min at 4 °C. The pellet was gently rinsed using 50 mM PPB and resuspended in glycerol/phosphate buffer (20% glycerol (v/v), 80% 0.1 M PPB pH 7.5). The protein concentration was determined using a Bradford assay (R^2 = 1.00), and microsomes were stored at − 80 °C.
Potential in vitro phase I and phase II metabolites of PZ-DHA were detected by incubating PZ-DHA in the presence of freshly-prepared mouse hepatic microsome preparations. Phase I metabolites were determined by incubating 1.1 µM PZ-DHA with 100 mM NADPH in the presence of mouse hepatic microsomes for 1 h at 37 °C. Phase II methylation, glucuronidation, and sulphation of PZ-DHA was determined by incubating 1.1 µM PZ-DHA with 1 mM SAM, 2 mM UDPGA, and 0.5 mM PAPS, respectively, in the presence of freshly prepared mouse hepatic microsome for 1 h at 37 °C (Supplementary information Tables S1–S4). To assess the efficiency of the metabolic process, controls (no PZ-DHA control, no mouse hepatic microsome control and no co-factor control) were incubated in parallel to the test. Reactions were terminated by adding a mixture of 4 mL ice-cold acetonitrile:acetone (80:20) containing 0.05 mg/mL quercetin as the internal standard. Proteins were precipitated by incubating the reaction mixture at 4 °C overnight and separated by centrifuging at 14,000 × g for 15 min at 4 °C. Supernatants were concentrated under nitrogen flush, filtered and PZ-DHA and/or PZ-DHA metabolites were identified using a UPLC-ESI–MS/MS system (Waters Limited, Mississauga, ON, Canada).
PZ-DHA and/or PZ-DHA metabolites in malignant/non-malignant epithelial cell lysates, in vitro microsome enzyme reaction mixtures, and mouse serum aliquots were determined using UPLC-ESI–MS/MS instrument (Waters Limited, Mississauga, ON, Canada). All mass spectroscopic analyses were performed using mass scan (full-scan, identification of unknowns) and single ion monitoring (SIM; quantification of PZ, DHA, PZ-DHA, and quercetin) modes of a Waters H-class UPLC separations module coupled with a Micromass Quattro micro API MS/MS system and MassLynx V4.0 control software. An Allure biphenyl column (100 mm × 2.1 mm, 1.8 μm, Restek Pure Chromatography, Bellefonte, PA, USA) and a flow rate of 0.3 mL/min were employed. ESI- mode with a capillary voltage of 3000 V and a nebulizer gas (N2) temperature of 375 °C were used. A volume of 2 µL sample was injected.

Series [2] in a line: Serum pharmacokinetics after intraperitoneal injection. It counts as in vivo, Balb/c female mice. The following applies: 100 mg/kg intraperitoneal; for Cmax: read-out: Maximum serum concentration (Cmax). As to the method: Figure 4 Intraperitoneal administration of PZ-DHA results in absorption into the systemic circulation of Balb/c female mice. PZ-DHA (100 mg/kg) was administered by intraperitoneal injection to Balb/c female mice. Blood collection was performed and serum was separated. PZ-DHA was identified and quantified using a calibration curve (R^2 = 0.99) generated using a standard series of PZ-DHA concentrations made in mouse serum. PZ-DHA concentration was plotted against time. The elimination rate of PZ-DHA was determined using a semi-log curve of PZ-DHA concentration vs. time curve.
Pharmacokinetic parameters and in vivo generation of PZ-DHA metabolites were studied using Balb/c female mice. Mice were randomly divided into six groups (n = 4/group) and PZ-DHA (100 mg/kg) was administered by intraperitoneal injection. For each mouse, a single blood collection was performed by cardiac puncture at one of six different time points (t = 15, 30, 60, 90, 120, and 240 min). At the end of blood collection, mice were euthanized by cervical dislocation and organs (liver, lungs, kidneys, spleen, and brain) were harvested. Blood samples were allowed to clot by leaving undisturbed at room temperature for 1 h, and serum was separated by centrifuging at 2000×g for 10 min at 4 °C. The serum was carefully removed and stored on ice until further processing. Serum proteins were precipitated by incubating an aliquot of serum with a mixture of acetonitrile:acetone (80:20) containing 0.1 mg/mL quercetin (internal standard) at 4 °C overnight. The supernatant was separated by centrifuging at 14,000×g for 10 min at 4 °C. Excess solvent was evaporated using nitrogen flush and mixed with methanol and filtered. PZ-DHA-metabolites in the filtrate were identified using a UPLC-ESI–MS/MS (Waters Limited, Mississauga, ON, Canada). Organs were homogenized in PBS (1:5 w/v). Supernatants were collected by centrifugation at 14,000 × g for 15 min at 4 °C. Proteins were precipitated by incubating in acetonitrile:acetone (80:20) containing 0.1 mg/mL quercetin (internal standard) at 4 °C overnight. Supernatants were treated as explained above, and PZ-DHA and/or PZ-DHA-metabolites were identified.
A calibration curve (R^2 = 0.99) generated using a standard series of PZ-DHA concentrations prepared in mouse serum (spiked with 0.1 mg/mL quercetin) was used for the quantification of PZ-DHA. The average PZ-DHA concentrations were plotted against time. The maximum serum concentration of serum (Cmax) and the time to reach Cmax (Tmax) were read directly from the graph. The linear trapezoidal method was used to calculate the area under the curve (AUC) from t = 0 to infinity, the biological half-life of PZ-DHA (t1/2), determined using the plotted curve in Graphpad Prism software (version 5; La Jolla, CA, USA). The clearance following IP administration was determined by non-compartmental analysis using the relationship CL/F = D/AUC. The elimination rate constant λ was determined by linear regression of the elimination phase of the semi-log transformed concentration versus time curve. The t1/2 was calculated using the formula 0.693/λ and the volume of distribution Vd/F from the formula Vd/F = CL/(F*λ).

The test system of series [3] is mammary carcinoma cells, including MDA-MB-231 and 4T1. Set-up: method as in PMID 31473253. Conditions: 20 µM for PZ-DHA; cited from earlier work.

Broadly, the AUC is the area under the concentration-time curve, a measure of exposure. Consider `CC/C=C\C/C=C\C/C=C\C/C=C\C/C=C\C/C=C\CCC(=O)OC[C@H]1O[C@@H](Oc2cc(O)cc(O)c2C(=O)CCc2ccc(O)cc2)[C@H](O)[C@@H](O)[C@@H]1O` [PZ-DHA, phloridzin docosahexaenoate], for which the “NADPH-dependent phase I bio-transformations identified” value in series [1] was “hydrolysis, hydroxylation, and epoxidation”. Further, in series [2], the “Clearance (CL/F)” value came to 1.37 mL/min and the “Volume of distribution (Vd/F)” value is recorded as 56.5 mL. For the same molecule, in series [2] (serum), the “Biological half-life (T1/2)” value was determined as 28.7 min and the Cmax was 23.4 µM. In addition, the “serum detectability at the last measured time” value in series [2] (240 min) is on record as “remained detectable”. Further, the Tmax in series [2] (female, Balb/c, mouse, ip, serum, read-out: Time to reach maximum serum concentration (Tmax) (converted)) is 1 h. Also, the half-life in series [2] (female, Balb/c, mouse, serum, ip, 100 mg/kg, serum, read-out: Biological half-life (T1/2)) stood at 28 min. Besides, the Cmax in series [2] (female, Balb/c, mouse, serum, ip, 100 mg/kg, serum) was found to be 23.7 µM. Moreover, the Vd/F in series [2] (female, Balb/c, mouse, serum, ip, 100 mg/kg, read-out: Volume of distribution (Vd/F)) came to 0.057 L. In addition, the AUC in series [2] (female, Balb/c, mouse, serum, ip, t = 0 to infinity, read-out: The area under the curve (AUC) (converted)) was 36.6 µM·h. Further, the k el in series [2] (female, Balb/c, mouse, serum, ip, read-out: Elimination rate (λz) (converted)) was 0.0004 s⁻¹. Besides, the concentration at 15 min in series [2] (female, Balb/c, mouse, serum, ip, 15 min, read-out: serum concentration at the 1st measured time point) is 900 ± 400 nM. The “migration and invasion of mammary carcinoma cells” value in series [3] is “significantly inhibits”.

These data come from article PMC7721897, “Metabolism and pharmacokinetics of a novel polyphenol fatty acid ester phloridzin docosahexaenoate in Balb/c female mice” (Scientific Reports, 2020).
